Patent publication US20140228299A1, “PROPHYLACTIC AND THERAPEUTIC AGENT FOR NEUROLOGICAL DISEASES USING LIPOPROTEINS AND PROPHYLACTIC AND THERAPEUTIC METHOD FOR NEUROLOGICAL DISEASES” (National University Corporation Tokyo Medical and Dental …, priority 2011, published 2014)

Legend:
retinal ganglion cells = experiment: Glutamic acid-induced apoptosis of cultured retinal ganglion cells (Hoechst 33342 or calcein AM/propidium iodide staining); format: cell-based, rat
Procedure: The primary culture of the retinal glia cells was carried out using two-day-old Sprague Dawley (SD) baby rats in accordance with a somewhat modified method (Hayashi et al., J. Biol. Chem. 2009) of the method of Barres et al. (Barres, et al., 1988). The isolated retinal glia cells (RGC) were suspended in a base culture medium of a RGC medium (1 mM glutamine, 5 μg/mL insulin, 60 μg/mL N-acetylcysteine, 62 ng/mL progesterone, 16 μg/mL putrescine, 40 ng/mL sodium selenite, 0.1 mg/mL bovine serum albumin, 40 ng/mL triiodothyronine, 0.1 mg/mL transferrin, 1 mM sodium pyruvate, 2% B27 supplement (Invitrogen, Carlsbad, Calif.), 10 μM forskolin (Sigma, St. Louis, Mo.), 50 ng/mL brain-derived neurotrophic factor (BDNF; PeproTech, Rocky Hill, N.J.), 50 ng/mL ciliary neurotrophic factor (CNTF; Peprotech), and 50 ng/mL basic fibroblast growth factor (bFGF; PeproTech). A 96-well plate was coated with poly-d-lysine (Sigma) and laminin (Sigma), and RGC was placed at the rate of 5,000 cells per well for the 96-well place, 5,000 cells per each culture insert for microdish, or 15,000 cells per dish for compartmentalized culture, followed by incubating for at least 10 days before experimentation.
In the figure, Cant represents a non-treated group, Glu represents a group with 300 μM glutamic acid added, and +glial LP represents a group with 300 μM glutamate+glia-cell-derived lipoprotein containing apolipoprotein E added. Glial LP was added in the concentration of 1 μg cholesterol/mL. After treatment, the rate of apoptosis-like cells was computed by observing the aggregation of the nuclei (a: nuclear staining with Hoechst 33342) or the sustained impermeability of esterase activity/membrane (b: calcein AM/Propidium Iodide staining) in 24 hours.
The induction and detection of apoptosis in RGC were performed in the manner as described below. Specifically, RGC was washed twice with Hanks' balanced salt solution (HBSS) containing 2.4 mM CaCl2 and 20 mM HEPES, but not containing magnesium, and incubated at 37° C. for 2 hours in a medium prepared by adding 300 μM glutamate and 10 μM glycine to the above Hanks' balanced salt solution. After treatment with glutamate, RGC was incubated at 37° C. for 22 hours in a RGC culture medium containing no forskolin, BDNF, CNTF and bFGF. In order to detect apoptosis, RGC was stained with 1 μg/mL of Hoechst 33342 (346-07951, Dojindo, Kumamoto, Japan) or 1 μg/mL of calcein-AM/propidium iodide (341-07381, Dojindo). The fluorescence images were observed by Olympus IX71 microscope. The fragmented or aggregated nuclei stained with the above Hoechst reagent were counted as apoptotic nuclei, and round and smooth nuclei were counted as sound nuclei. As the sound nuclei were not stained with propidium iodide, the nuclei stained with propidium iodide were counted as apoptotic nuclei. More than 300 nuclei were counted in each group.
The apoptosis of RGC was measured in the following manner. The RGC subjected to the primary incubated was incubated two times at 37° C. for 15 minutes using Hanks' Balanced Salt Solution (HBSS) containing 2.4 mM CaCl2 and 20 mM 4-(2-hydroxyethyl)-pyperazine-1-ethanesulfonic acid (HEPES) but containing no magnesium and then washed. […], the magnesium was removed from the washing solution. Thereafter, the RGC was treated or not treated with […] (a co-activating agent for the NMDA receptor) in HBSS containing 2.4 mM CaCl2 and 20 mM HEPES (without magnesium) and then incubated at 37° C. for 2 hours. A control (HBSS containing 2.4 mM CaCl2 and 20 mM HEPES (without containing magnesium)) or the RGC treated or not treated with glutamic acid was incubated at 37° C. for 22 hours in the same medium as used for the RGC (without forskolin, brain-derived neurotrophic factor, ciliary neurotrophic factor and basic fibroblast growth factor). […]

[1] = system: retinal ganglion cells of GLAST knockout mouse; experiment: Intravitreal administration to GLAST knockout mouse (normal-pressure glaucoma model), counting of retinal ganglion cells; format: in vivo
Procedure: This example is an experiment to investigate whether the reconstituted lipoprotein containing apolipoprotein E3 (LP) inhibits apoptosis of the […] of a GLAST knockout mouse as a normal-pressure glaucoma model animal. […] The eyeball was removed at the time of six weeks, followed by fixing with paraffin, staining with hematoxylin-eosin, and counting the retinal glia cells on the retina.
Three-week-old GLAST+/− or GLAST−/− mice were anesthetized by intraperitoneal injection of 50 mg/kg of pentobarbital sodium. […]
The eyeball of a six-week-old mouse was removed and fixed overnight at 4° C. using Super Fix (KY-500, Kurabo. Osaka), followed by removing the cornea and the crystalline lens under a stereoscopic microscope. […] Five sections were selected from each of the continuous sections and the number of the cells within the glia cell layer was counted in a range extending from one end of the retinal section to the other end through the optic nerve. More than 2,000 cells were counted on 10 sections of each retina.

Row | Substance | effect on the inhibitory effects of α2-macroglobulin on neuroprotection (retinal ganglion cells; 100 nM a2M, E-LP 100-3,000 ng protein/mL, Glu, Hoechst 24 hours) | protection of RGC from Glu-induced neurotoxicity, dose dependence (retinal ganglion cells; RGC incubated with E-LP 15 minutes before Glu) | RGC existence in Glast+/− and Glast−/− mice ([1]; 1 μl of 1.5 μg protein/mL E-LP into vitreous body, three-week-old injected, six-week-old examined) | difference in neuroprotective effects between apoE isoforms in RGC treated with glutamic acid (retinal ganglion cells; 100 ng protein/mL, 15 minutes before Glu) | apoptosis of retinal cells induced by glutamic acid (apoptosis-like cells) (retinal ganglion cells; added at 100 ng protein/mL, Hoechst 33342) | apoptosis of the retinal cells of GLAST knockout mouse ([1]; LP (100 ng protein/mL) into vitreous body at three weeks, eyeball removed at six weeks)
1 | E-LP: reconstituted lipoprotein of 1-palmitoyl-2-oleyl-glycerophosphocoline, cholesterol and recombinant human apolipoprotein E, molar ratio 100:10:1 or 100:0:1 | inhibited | protected the RGC in a dose-dependent manner | recovery |  |  | 
2 | LP: reconstituted lipoprotein of POPC, cholesterol and recombinant human apolipoprotein E3 |  |  |  | no difference | inhibited the apoptosis | inhibited apoptosis
